Assay results from the NIST ThermoML archive (doi:10.1021/acs.jced.6b00536).

Experiment: xn = mol fraction of the nth substance listed
Conditions: Gas, Frequency=0.05 MHz, Single path-length method, x2 = 0.056

FC(F)(F)C(F)(F)C(F)(F)F [octafluoropropane] + FC(F)(F)C(F)(F)F
Conditions | speed of sound [m/s]
252.6 K, 87.5 kPa | 107.26
252.6 K, 102.5 kPa | 106.66
252.6 K, 119.8 kPa | 106.02
252.6 K, 143.2 kPa | 105.14
252.6 K, 173.7 kPa | 103.91
252.6 K, 201.7 kPa | 102.77
257.7 K, 88.9 kPa | 108.41
257.7 K, 104.4 kPa | 107.85
257.7 K, 122.1 kPa | 107.22
257.7 K, 146.2 kPa | 106.37
257.7 K, 177.3 kPa | 105.18
257.7 K, 206.4 kPa | 104.1
257.7 K, 234.4 kPa | 102.97
262.8 K, 90.4 kPa | 109.57
262.8 K, 106.6 kPa | 109.02
262.8 K, 124.5 kPa | 108.41
262.8 K, 148.9 kPa | 107.58
262.8 K, 180.9 kPa | 106.46
262.8 K, 210.8 kPa | 105.41
262.8 K, 239.7 kPa | 104.33
262.8 K, 276.7 kPa | 102.88
267.9 K, 91.9 kPa | 110.71
267.9 K, 108.6 kPa | 110.16
267.9 K, 126.8 kPa | 109.58
267.9 K, 151.8 kPa | 108.79
267.9 K, 184.5 kPa | 107.7
267.9 K, 215.2 kPa | 106.69
267.9 K, 245.1 kPa | 105.66
267.9 K, 283.1 kPa | 104.27
273.1 K, 93.6 kPa | 111.83
273.1 K, 110.7 kPa | 111.31
273.1 K, 129.5 kPa | 110.76
273.1 K, 154.8 kPa | 109.99
273.1 K, 188.5 kPa | 108.94
273.1 K, 220.5 kPa | 107.96
273.1 K, 249.8 kPa | 106.97
273.1 K, 290.4 kPa | 105.61
278.2 K, 95.1 kPa | 112.94
278.2 K, 112.5 kPa | 112.44
278.2 K, 131.9 kPa | 111.89
278.2 K, 157.6 kPa | 111.15
278.2 K, 192.1 kPa | 110.13
278.2 K, 224.8 kPa | 109.21
278.2 K, 255 kPa | 108.24
278.2 K, 296.7 kPa | 106.96
283.2 K, 96.7 kPa | 114.02
283.2 K, 114.4 kPa | 113.54
283.2 K, 134 kPa | 113.01
283.2 K, 160.5 kPa | 112.31
283.2 K, 195.7 kPa | 111.31
283.2 K, 229.1 kPa | 110.42
283.2 K, 260.1 kPa | 109.49
283.2 K, 303 kPa | 108.25
288.3 K, 98.2 kPa | 115.1
288.3 K, 116.5 kPa | 114.63
288.3 K, 136.2 kPa | 114.12
288.3 K, 163.5 kPa | 113.43
288.3 K, 199.4 kPa | 112.48
288.3 K, 233.4 kPa | 111.61
288.3 K, 265.3 kPa | 110.72
288.3 K, 309.2 kPa | 109.53
293.3 K, 100.1 kPa | 116.16
293.3 K, 118.3 kPa | 115.7
293.3 K, 118.5 kPa | 115.72
293.3 K, 138.4 kPa | 115.2
293.3 K, 138.6 kPa | 115.22
293.3 K, 166.2 kPa | 114.54
293.3 K, 166.5 kPa | 114.55
293.3 K, 203 kPa | 113.61
293.3 K, 203.4 kPa | 113.63
293.3 K, 237.8 kPa | 112.79
293.3 K, 270.3 kPa | 111.92
293.3 K, 271.3 kPa | 111.92
293.3 K, 315.4 kPa | 110.77
298.4 K, 101.4 kPa | 117.22
298.4 K, 120.3 kPa | 116.79
298.4 K, 140.7 kPa | 116.3
298.4 K, 169.3 kPa | 115.65
298.4 K, 206.9 kPa | 114.77
298.4 K, 242.3 kPa | 113.97
298.4 K, 275.6 kPa | 113.13
298.4 K, 321.7 kPa | 112.02
303.4 K, 102.9 kPa | 118.27
303.4 K, 122.2 kPa | 117.85
303.4 K, 143.1 kPa | 117.38
303.4 K, 172.2 kPa | 116.75
303.4 K, 210.6 kPa | 115.9
303.4 K, 246.6 kPa | 115.1
303.4 K, 280.7 kPa | 114.31
303.4 K, 327.8 kPa | 113.24
308.5 K, 104.4 kPa | 119.31
308.5 K, 124.1 kPa | 118.88
308.5 K, 145.4 kPa | 118.44
308.5 K, 175.2 kPa | 117.83
308.5 K, 214.1 kPa | 117
308.5 K, 251 kPa | 116.24
308.5 K, 285.8 kPa | 115.47
308.5 K, 334 kPa | 114.43
313.5 K, 105.9 kPa | 120.35
313.5 K, 126 kPa | 119.93
313.5 K, 147.7 kPa | 119.48
313.5 K, 177.9 kPa | 118.9
313.5 K, 217.6 kPa | 118.09
313.5 K, 255.2 kPa | 117.36
313.5 K, 290.9 kPa | 116.61
313.5 K, 340 kPa | 115.6
318.5 K, 107.5 kPa | 121.35
318.5 K, 127.9 kPa | 120.96
318.5 K, 150.1 kPa | 120.53
318.5 K, 180.8 kPa | 119.96
318.5 K, 221.2 kPa | 119.17
318.5 K, 259.7 kPa | 118.47
318.5 K, 296 kPa | 117.74
318.5 K, 346.1 kPa | 116.75
323.5 K, 109.2 kPa | 122.36
323.5 K, 130 kPa | 121.97
323.5 K, 152.5 kPa | 121.55
323.5 K, 183.8 kPa | 121
323.5 K, 225 kPa | 120.25
323.5 K, 264.1 kPa | 119.56
323.5 K, 301.1 kPa | 118.85
323.5 K, 352.2 kPa | 117.91
